One assay deals with T1, FGFR2 (Homo sapiens, UniProt P21802, K310R/N549K).
T1 construct: in FGFR aberrations of AN3CA (FGFR2/k310R, N549K); host or cells: AN3CA
The assay can be described thus: pERK potency assay (In Cell ELISA), AN3CA cells. It is filed as cell-based. The conditions noted are these: for pIC50: pERK, AN3CA (FGFR2/k310R, N549K) cells, 3 hours; for FGFR1 IC50/FGFR2 IC50 / FGFR3 IC50/FGFR2 IC50: selectivity ratio, pERK potency; for FGFR1 IC50/FGFR2 IC50: FGFR2 relative to FGFR1; for FGFR3 IC50/FGFR2 IC50: FGFR2 relative to FGFR3. Put shortly: (§1)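 IC50 values come from a 4-parameter sigmoidal fit of in-cell ELISA chemiluminescent pERK (Thr202/Tyr204) signal. Treatment lasted 3 h at 37 °C, final 0.000038 to 10 μM in 4-fold steps, using AN3CA (mutant FGFR2), DMS114 (amplified FGFR1) and RT112 (FGFR3 overexpression/fusion) cells.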
Background: In an ELISA, binding on a coated surface is turned into a signal by an enzyme label.

Another assay has as its target T2, FGFR1 (Homo sapiens, UniProt P11362).
T2 construct: DMS114 (FGFR1 amplification); host or cells: DMS114
The assay can be described thus: pERK potency assay (In Cell ELISA), DMS114 cells. To be noted: DMS114 (FGFR1 amplification) cells, 3 hours. The class given is cell-based. In outline: as §1

For the next assay, the target named is T3, FGFR3 (Homo sapiens, UniProt P22607).
T3 construct: RT112 (FGFR3 overexpression/FGFR3-TACC3 fusion); host or cells: RT112; the other entry of the earlier key: TACC3 (Q9Y6A5, Transforming acidic coiled-coil-containing protein 3)
The assay can be described thus: pERK potency assay (In Cell ELISA), RT112 cells. The class given is cell-based. To be noted: RT112 (FGFR3 overexpression/FGFR3-TACC3 fusion) cells, 3 hours. Put shortly: as §1

The subject of another assay is AN3CA. The assay can be described thus: 2D cell proliferation assay, AN3CA. It is filed as cell-based. The conditions noted are these: Homo sapiens, AN3-CA, 96 hours, CTG, read-out: Cell Line, IC50 AN3CA. How it is done:
(§2) Low IC50 values are indicative of the high potency of the FGFR inhibitor compounds in this assay selling. […] Cell proliferation assays are performed in two-dimensional (2D)) anchorage-dependent conditions in 96 well plates (Corning® Black/Clear flat Bottom, Cat #3603) with the following cell lines: • Ba/F3 FGFR2-BICC1 (human […]): Mouse Ba/F3 cell line stably expressed exogenous human FGFR2-BICC1 fusion gene bearing V546F mutation in FGFR2 Ba/F3; • FGFR2-BICC1 (human FGFR2/[…]): Mouse Ba/F3 cell line stably expressed exogenous human FGFR2-BICC1 fusion gene bearing N549K mutation in FGFR2; • Snu-16: human gastric cancer cell with FGFR2 amplification; • KATO III: human gastric cancer cell with FGFR2 amplification; • AN3CA: Human endometrial cancer with FGFR2 mutation (k310R, N549K); • MFM-223: Human breast cancer with FGFR1/2 amplification; • MFE-296: Human endometrial cancer with FGFR2 mutation (N549K); • MFE-280: Human endometrial cancer with FGFR2 mutation ([…]); • NCI-H1581: human non-small cell lung cancer with FGFR1 amplification; • KG-1a: Acute myelogenous leukemia with FGFR1OP2-FGFR1 translocation; • DMS114: human small cell carcinoma of the lung with FGFR1 amplification; • RT112: human bladder cancer with FGFR3 overexpression/FGFR3-TACC3 fusion; • SW780: human bladder cancer with FGFR3 overexpression/FGFR3-BALAP2L1 fusion; • Hep3B: Liver cancer with FGF19 amplification (FGFR4 ligand); • AGS: Human gastric adenocarcinoma with Kras G12D mutation and FGFR wild type; • PC-9: human non-small cell lung cancer (NSCLC) with wild-type FGFR and an EGFR del19 mutation; or • H1975: human non-small cell lung cancer (NSCLC) with wild-type FGFR and EGFR L858R/T790M mutation.
(§3) Cell lines are purchased from the American Type Culture Collection (ATCC) or Sigma. All cell lines are maintained in RPMI-1640 or DMEM supplemented with 10% heat-inactivated fetal bovine serum.
(§4) Cells growing in the log phase are detached with Gibco™ TrypLE™ Express Enzyme and plated in 96 well plate at 3000 to 5000 cells/well in 100 μl of media. After overnight incubation at 37° C., 5% CO2 incubator, cells are treated with compounds (50 uL/well) at the final concentrations spanning from 0.000038 uM to 10 μM (4-fold serial dilution for total of 10 points). Cells are incubated at 37° C., 5% CO2, and 95% humidity incubator for 96 hours. At the end of incubation 2D CTG reagent from Promega was added to each well according to vendors recommendation and mixed for 10 min in dark. The luminescence signals are determined with a Biotek™ plate reader. Data is fitted using a sigmoidal curve analysis program (GraphPad Prism®) with variable hill slope and IC50 is determined.

A further assay addresses T4, Ba/F3 FGFR2-N549K (Homo sapiens, UniProt P21802, N549K, cells depend on it).
T4 construct: fused on or other part: Q9H694 (Protein bicaudal C homolog 1)
The experiment in a line: 2D cell proliferation assay, Ba/F3 FGFR2-N549K. It is filed as cell-based, mouse. The conditions noted are these: 96 hours, CTG, read-out: Cell Line, IC50 Ba/F3 FGFR2-N549K. Put shortly: (§5)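 Cells seeded at 3000–5000 cells/well in RPMI-1640 or DMEM with 10% FBS, treated next day with compounds at 0.000038–10 μM final (4-fold, 10 points) for 96 h at 37°C, 5% CO2. Viability by CellTiter-Glo luminescence; IC50 from sigmoidal variable-slope fit.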

In the next assay the target is T5, Ba/F3 FGFR2-V564F (Homo sapiens, UniProt P21802, V564F, cells depend on it).
T5 construct: fused on or other part: Q9H694 (Protein bicaudal C homolog 1)
The assay can be described thus: 2D cell proliferation assay, Ba/F3 FGFR2-V564F. The conditions noted are these: 96 hours, CTG, read-out: Cell Line, IC50 Ba/F3 FGFR2-V564F. The class given is cell-based, mouse. Put shortly:
as §5

The test system of the next assay is KATO III. The assay can be described thus: 2D cell proliferation assay, KATO III. It is filed as cell-based. To be noted: Homo sapiens, 96 hours, CTG, read-out: Cell Line, IC50 KATO III. How it is done: as §2, §3, §4
The next assay has as its system SNU-16. The assay can be described thus: 2D cell proliferation assay, SNU-16. The class given is cell-based. To be noted: Homo sapiens, 96 hours, CTG, read-out: Cell Line, IC50 SNU-16. How it is done: as §2, §3, §4

pIC50: −log10 of the molar value. A value given as a limit tells only on which side of the number the result lay.

One may read the pIC50 as the negative decadic logarithm of the IC50, by convention in mol/L.

T2 sequence (P11362 22-822): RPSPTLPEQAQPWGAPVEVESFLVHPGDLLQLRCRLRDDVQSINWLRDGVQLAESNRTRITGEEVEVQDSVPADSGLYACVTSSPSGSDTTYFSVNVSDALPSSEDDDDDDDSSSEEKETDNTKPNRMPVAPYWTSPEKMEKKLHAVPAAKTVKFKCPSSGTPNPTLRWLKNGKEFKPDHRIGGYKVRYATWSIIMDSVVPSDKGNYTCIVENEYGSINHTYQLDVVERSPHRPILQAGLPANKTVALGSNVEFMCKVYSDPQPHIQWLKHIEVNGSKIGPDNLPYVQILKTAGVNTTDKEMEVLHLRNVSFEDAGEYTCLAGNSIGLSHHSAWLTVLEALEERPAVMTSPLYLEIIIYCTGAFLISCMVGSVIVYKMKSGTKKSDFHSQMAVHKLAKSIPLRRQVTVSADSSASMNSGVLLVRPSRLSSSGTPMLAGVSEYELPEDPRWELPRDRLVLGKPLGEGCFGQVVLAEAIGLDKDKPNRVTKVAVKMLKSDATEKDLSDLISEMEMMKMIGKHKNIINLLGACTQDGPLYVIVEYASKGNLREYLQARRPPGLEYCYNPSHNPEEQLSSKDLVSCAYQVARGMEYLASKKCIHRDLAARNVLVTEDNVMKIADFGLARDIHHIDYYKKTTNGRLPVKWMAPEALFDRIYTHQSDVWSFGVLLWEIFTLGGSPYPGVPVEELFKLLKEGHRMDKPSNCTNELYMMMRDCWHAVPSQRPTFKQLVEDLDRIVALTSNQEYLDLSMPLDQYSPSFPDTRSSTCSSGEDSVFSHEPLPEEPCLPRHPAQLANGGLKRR
T5 sequence (P21802 whole entry V564F, the tested form may be a part): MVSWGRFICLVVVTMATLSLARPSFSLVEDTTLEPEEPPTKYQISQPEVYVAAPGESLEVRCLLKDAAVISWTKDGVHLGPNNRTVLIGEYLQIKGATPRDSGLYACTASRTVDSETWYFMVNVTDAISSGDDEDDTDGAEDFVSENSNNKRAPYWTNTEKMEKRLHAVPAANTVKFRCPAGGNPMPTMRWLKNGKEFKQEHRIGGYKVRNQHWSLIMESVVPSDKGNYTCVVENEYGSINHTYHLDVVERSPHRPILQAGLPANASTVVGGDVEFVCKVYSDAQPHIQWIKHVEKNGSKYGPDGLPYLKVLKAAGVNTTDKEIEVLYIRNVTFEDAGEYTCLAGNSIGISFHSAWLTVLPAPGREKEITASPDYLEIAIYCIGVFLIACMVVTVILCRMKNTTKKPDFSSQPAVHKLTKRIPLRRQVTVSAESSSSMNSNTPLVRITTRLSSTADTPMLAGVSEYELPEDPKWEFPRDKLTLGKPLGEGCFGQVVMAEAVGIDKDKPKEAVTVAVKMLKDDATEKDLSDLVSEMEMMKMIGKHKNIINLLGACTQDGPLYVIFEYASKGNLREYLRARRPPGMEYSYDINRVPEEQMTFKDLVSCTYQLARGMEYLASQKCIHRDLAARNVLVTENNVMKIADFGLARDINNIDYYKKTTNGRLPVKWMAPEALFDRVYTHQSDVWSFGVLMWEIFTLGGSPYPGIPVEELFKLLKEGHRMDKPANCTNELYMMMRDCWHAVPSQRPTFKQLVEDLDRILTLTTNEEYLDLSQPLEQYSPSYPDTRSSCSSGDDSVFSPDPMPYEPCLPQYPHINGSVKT
T4 sequence (P21802 whole entry N549K, the tested form may be a part): as the sequence (P21802 whole entry V564F, the tested form may be a part) above, with N549K, F564V counted along it
T1 sequence (P21802 22-821 K310R/N549K): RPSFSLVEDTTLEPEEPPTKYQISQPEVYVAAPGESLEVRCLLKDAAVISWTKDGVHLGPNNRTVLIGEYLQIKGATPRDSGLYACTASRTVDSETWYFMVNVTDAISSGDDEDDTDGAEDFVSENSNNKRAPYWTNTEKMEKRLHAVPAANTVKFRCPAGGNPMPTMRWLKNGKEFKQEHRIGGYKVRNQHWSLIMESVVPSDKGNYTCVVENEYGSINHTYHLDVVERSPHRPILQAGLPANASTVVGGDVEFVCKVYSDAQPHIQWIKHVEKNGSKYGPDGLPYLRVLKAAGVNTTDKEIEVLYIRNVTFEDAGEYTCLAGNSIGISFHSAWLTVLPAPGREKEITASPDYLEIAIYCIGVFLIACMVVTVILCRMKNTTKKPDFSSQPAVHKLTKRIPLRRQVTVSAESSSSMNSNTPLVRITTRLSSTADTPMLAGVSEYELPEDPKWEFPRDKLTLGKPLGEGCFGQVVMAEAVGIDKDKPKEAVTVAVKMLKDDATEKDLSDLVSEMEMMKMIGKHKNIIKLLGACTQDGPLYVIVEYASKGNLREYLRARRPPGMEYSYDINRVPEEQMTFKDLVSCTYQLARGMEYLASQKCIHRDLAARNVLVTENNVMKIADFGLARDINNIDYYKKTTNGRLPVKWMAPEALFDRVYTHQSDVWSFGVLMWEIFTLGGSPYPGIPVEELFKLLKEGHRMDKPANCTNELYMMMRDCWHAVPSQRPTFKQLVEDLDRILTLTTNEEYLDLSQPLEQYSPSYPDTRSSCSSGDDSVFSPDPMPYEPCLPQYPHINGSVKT

For `C=CC(=O)N1CCC2(CC=C(c3c(-c4ncccn4)c4c(N)ncnc4n3C)CC2)CC1` [Example 33, 1-(9-(4-amino-7-methyl-5-(pyrimidin-2-yl)-7H-pyrrolo[2,3-d]pyrimidin-6-yl)-3-azaspiro[5.5]undec-8-en-3-yl)prop-2-en-1-one], the pIC50 at FGFR2 was 8.00 to 9.00; at FGFR1 it was under 7.00; at FGFR3, under 7.00; in the assay with AN3CA it was 7.52 to 8.00; in the assay on KATO III, 8.00 to 9.00; in the assay with SNU-16 it was 8.00 to 9.00. The “FGFR1 IC50/FGFR2 IC50” value at FGFR2 is recorded as “G (a selectivity ratio greater than 150 but less than or equal to 500)”. Moreover, the “FGFR3 IC50/FGFR2 IC50” value at FGFR2 is reported as “I (a selectivity ratio greater than 1000 but less than or equal to 2000)”. The results for the GI50 at Ba/F3 FGFR2-N549K and on Ba/F3 FGFR2-V564F were 1 to 10 nM and at most 1 nM, respectively.
As for `C=CC(=O)N1CCC2(CC=C(c3c(-c4ccc(OC)nc4)c4c(N)ncnc4n3C)CC2)CC1C` (stereo not shown) [Example 39, 1-(9-(4-amino-5-(6-methoxypyridin-3-yl)-7-methyl-7H-pyrrolo[2,3-d]pyrimidin-6-yl)-2-methyl-3-azaspiro[5.5]undec-8-en-3-yl)prop-2-en-1-one], the pIC50 at FGFR2 was 8.00 to 9.00; at FGFR1 it was under 7.00; on FGFR3, under 7.00; with AN3CA, 7.52 to 8.00; with KATO III, 7.52 to 8.00; in the assay on SNU-16 it was 7.52 to 8.00. Moreover, the “FGFR1 IC50/FGFR2 IC50” value on FGFR2 is “G (a selectivity ratio greater than 150 but less than or equal to 500)”. Further, the “FGFR3 IC50/FGFR2 IC50” value at FGFR2 is recorded as “I (a selectivity ratio greater than 1000 but less than or equal to 2000)”. Also, the results for the GI50 on Ba/F3 FGFR2-N549K and on Ba/F3 FGFR2-V564F were 1 to 10 nM and 10 to 30 nM, respectively.
`C=CC(=O)N1CCC2(CC=C(c3c(-c4ncc(C(F)(F)F)cn4)c4c(N)ncnc4n3C)CC2)CC1` [Example 42, 1-(9-(4-amino-7-methyl-5-(5-(trifluoromethyl)pyrimidin-2-yl)-7H-pyrrolo[2,3-d]pyrimidin-6-yl)-3-azaspiro[5.5]undec-8-en-3-yl)prop-2-en-1-one]: the negative logarithm of the IC50 (pIC50) at FGFR2 is at least 9.00; at FGFR1 it was under 7.00; on FGFR3, under 7.00; in the assay with AN3CA it was 7.52 to 8.00; with KATO III, 7.52 to 8.00; with SNU-16, 7.52 to 8.00. On FGFR2, the “FGFR1 IC50/FGFR2 IC50” value is given as “J (a selectivity ratio greater than 2000)”. Besides, at FGFR2, the “FGFR3 IC50/FGFR2 IC50” value is recorded as “J (a selectivity ratio greater than 2000)”. Further, the GI50 on Ba/F3 FGFR2-N549K and on Ba/F3 FGFR2-V564F was 1 to 10 nM throughout.
Consider `C=CC(=O)N1CCC2(CC=C(c3c(-c4ncc(C#N)cn4)c4c(N)ncnc4n3C)CC2)CC1` [Example 51, 2-(6-(3-acryloyl-3-azaspiro[5.5]undec-8-en-9-yl)-4-amino-7-methyl-7H-pyrrolo[2,3-d]pyrimidin-5-yl)pyrimidine-5-carbonitrile], for which the pIC50 is at least 9.00 on FGFR2; under 7.00 on FGFR1; under 7.00 at FGFR3; 7.00 to 7.52 with AN3CA; 7.52 to 8.00 in the assay on KATO III; 7.52 to 8.00 with SNU-16. For the same compound, the “FGFR1 IC50/FGFR2 IC50” value on FGFR2 is recorded as “J (a selectivity ratio greater than 2000)”. For the same compound, the “FGFR3 IC50/FGFR2 IC50” value on FGFR2 is recorded as “J (a selectivity ratio greater than 2000)”. In addition, the GI50 on Ba/F3 FGFR2-N549K and at Ba/F3 FGFR2-V564F was 1 to 10 nM in each case.
Consider `C=CC(=O)N1CCC2(CC=C(c3c(-c4ncc(C(F)F)cn4)c4c(N)ncnc4n3C)CC2)CC1` [Example 56, 1-(9-(4-amino-5-(5-(difluoromethyl)pyrimidin-2-yl)-7-methyl-7H-pyrrolo[2,3-d]pyrimidin-6-yl)-3-azaspiro[5.5]undec-8-en-3-yl)prop-2-en-1-one], for which the negative logarithm of the IC50 (pIC50) is at least 9.00 at FGFR2; under 7.00 at FGFR1; under 7.00 on FGFR3; at least 9.00 with AN3CA; 8.00 to 9.00 in the assay on KATO III; 8.00 to 9.00 with SNU-16. Also, the “FGFR1 IC50/FGFR2 IC50” value on FGFR2 is on record as “G (a selectivity ratio greater than 150 but less than or equal to 500)”. For the same compound, the “FGFR3 IC50/FGFR2 IC50” value on FGFR2 is on record as “I (a selectivity ratio greater than 1000 but less than or equal to 2000)”. The GI50 is 1 to 10 nM on Ba/F3 FGFR2-N549K and at most 1 nM at Ba/F3 FGFR2-V564F.
On to `C=CC(=O)N1CCC2(CC=C(c3c(C#N)c4c(N)ncnc4n3C)CC2)CC1` [Example 57, 6-(3-acryloyl-3-azaspiro[5.5]undec-8-en-9-yl)-4-amino-7-methyl-7H-pyrrolo[2,3-d]pyrimidine-5-carbonitrile], for which the pIC50 was 8.00 to 9.00 on FGFR2; under 7.00 on FGFR1; under 7.00 at FGFR3; 8.00 to 9.00 in the assay with AN3CA; 8.00 to 9.00 in the assay with KATO III; 8.00 to 9.00 in the assay with SNU-16. Besides, on FGFR2, the “FGFR1 IC50/FGFR2 IC50” value is listed as “G (a selectivity ratio greater than 150 but less than or equal to 500)”. In addition, the “FGFR3 IC50/FGFR2 IC50” value on FGFR2 is on record as “H (a selectivity ratio greater than 500 but less than or equal to 1000)”. For the same compound, the GI50 at Ba/F3 FGFR2-N549K is 10 to 30 nM; on Ba/F3 FGFR2-V564F, over 100 nM.
Take `C=CC(=O)N1CCC2(CC=C(c3[nH]c4ncnc(N)c4c3-c3ncccn3)CC2)CC1` [Example 58, 1-(9-(4-amino-5-(pyrimidin-2-yl)-7H-pyrrolo[2,3-d]pyrimidin-6-yl)-3-azaspiro[5.5]undec-8-en-3-yl)prop-2-en-1-one]: the pIC50 at FGFR2 was 8.00 to 9.00; on FGFR1, under 7.00; on FGFR3 it was under 7.00; in the assay with AN3CA, 8.00 to 9.00; in the assay on KATO III, 7.52 to 8.00; with SNU-16 it was 7.52 to 8.00. Also, at FGFR2, the “FGFR1 IC50/FGFR2 IC50” value is listed as “G (a selectivity ratio greater than 150 but less than or equal to 500)”. Further, the “FGFR3 IC50/FGFR2 IC50” value at FGFR2 was “H (a selectivity ratio greater than 500 but less than or equal to 1000)”. Besides, the GI50 at Ba/F3 FGFR2-N549K fell in the range of 10 to 30 nM; on Ba/F3 FGFR2-V564F it was 1 to 10 nM.

These data come from US20260152503A1, “SPIROBICYCLIC COMPOUNDS” (ACERAND THERAPEUTICS (HONG KONG) LIMITED, priority 2022, published 2026).
